Experimental findings from EP4813463A2, “TYK2 INHIBITORS AND COMPOSITIONS AND METHODS THEREOF” (Lynk Pharmaceuticals Co. Ltd., priority 2023, dated 2024) are described below.

Converted amounts (≈) assume the structure as drawn. Like-named read-outs stand apart in the source and are kept apart here.

One data set has as its target T1, TYK2-JH2 domain (Homo sapiens, UniProt P29597).
T1 construct: JAK1-JH2 domain or TYK2-JH2 domain enzyme in assay buffer
The experiment in a line: Binding activity test for JH2 domain of TYK2 (Tb-antibody/tracer FRET). Conditions: for IC50: JH2 domain enzyme, 60 min at 25°C, then 4°C overnight, read-out: TYK2 JH2 Binding IC50; for JAK1/TYK2 selectivity: ratio of JAK1 JH2 to TYK2 JH2 binding IC50. In short, it runs like this: (§1)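 IC50 values (nM) come from TR-FRET readings taken after a 25°C incubation followed by overnight at 4°C. Each well held JH2 domain protein, Tb-antibody, tracer and test compound titrated in 11 threefold steps, with DMSO high and low controls.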

The test system of data set [1] is Ba/F3-FL-TYK2-P760L cells. The experiment in a line: Anti-proliferative assay in engineered Ba/F3 cells (Cell-Titer Glo, 72 h). Type of data set: cell-based. Conditions: 72 h compound treatment, concentration that causes 50% growth inhibition, read-out: Baf3-FL-T2P760L. Summed up: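 IC50 from luminescent ATP viability after 72 h compound exposure (37 °C, 5% CO2), % inhibition normalised to DMSO-treated cells minus medium blank. IL-3-free Ba/F3-FL-TYK2-P760L (Tel-JAK fusion) cells in 10% FBS RPMI-1640 received 9 three-fold doses, top 20 µM, 0.1% DMSO.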

A short description of the next data set: Kinetic solubility. As to conditions: 100 mM pH 7.4 phosphate buffer, 1% DMSO, room temperature, read-out: Kinetics Solubility_PBS7.4. Type of data set: physicochemical. The method, then:
Aliquots of 8 µL of reference and test compound stock solutions (10 mM/5 mM) are added into 792 µL of 100 mM pH 7.4 phosphate buffer. The final DMSO concentration is 1%. Sample tubes are shaken for 2 hours at 1000 rpm at room temperature. Samples are centrifuged at 12000 rpm for 10 min to precipitate un-dissolved particles. And transfer the supernatants to a new tube or plate. Add 5 µL of samples (no diluted, 10 times diluted, and 100 times diluted) and standard curve samples to 95 µL of ACN containing IS for LC-MS/MS analysis. Kinetic Solubilities Values of Exemplary Compounds

In the next data set the target is T2, JAK1-JH2 domain (Homo sapiens, UniProt P23458).
T2 construct: JAK1-JH2 domain or TYK2-JH2 domain enzyme in assay buffer
Briefly: Binding activity test for JH2 domain of JAK1 (Tb-antibody/tracer FRET). As to conditions: JH2 domain enzyme; 60 min at 25°C, then 4°C overnight; read-out: JAK1 JH2 Binding IC50. Summed up:
as §1

A short description of data set [2]: Microsomal metabolic stability assay. The class given is in vitro ADME. As to conditions: human, liver microsomes, pH 7.4, 0.5 mg/mL microsomal protein, 1 µM test article, 2 mM NADPH; for microsomal CLint at 1 µM: read-out: Human LM Clint; for half-life at 1 µM: read-out: Human LM T1/2. The method, then: Microsomes were pre-incubated with test compound or control compounds for 5 min at 37°C in 100 mM potassium phosphate buffer, pH 7.4, 1.0 mM EDTA. The reaction was initiated by addition of 15 µL of the NADPH regenerating system to 30 µL of each incubation mixture per time point. The final incubation condition was composed of 0.5 mg/mL microsomal protein, 1 µM test article/positive control, 2 mM NADPH. The 0-minute samples were prepared by addition of a 30 µL aliquot of each incubation mixture to 135 µL quench reagent to precipitate proteins. And then a 15 µL aliquot of the NADPH regenerating system was added. At 5, 15, 30 and 45 minutes, the reaction will be stopped by the addition of cold acetonitrile solution containing internal standard. The samples taken at all time points were centrifuged at 5000×g for 15 minutes. 50 µL of supernatant are taken into 96-well assay plates pre-added with 50 µL ultrapure water, and then analyzed by LC/MS/MS.
Concentrations of test articles, control compounds in the samples were determined by using LC/MS/MS method. Plotting of the chromatograms and peak area integrations are carried out by Analyst (AB Sciex).
In the determination of the in vitro elimination constant (ke) of the control compounds, the analyte/internal standard peak area ratios will be converted to percentage remaining (%Remaining) with the following equation: %Remaining = (Peak area ratio of analyte to IS at each time point)/(Peak area ratio of analyte to IS at t = 0) × 100% [formula]
The CLint of microsomes was calculated using the formula: CLint (mic)=0.693/T1/2 /mg microsome protein per mL. The slope was measured by the natural logarithm of the percentage of the residual compound and time, T1/2 was calculated according to the following formula. T = (0.693)/(−slope) [formula]
On the technique in general: Liver microsomes are vesicles of endoplasmic reticulum, rich in cytochrome P450 enzymes.

Where [3] appears, read: phosphate buffer, pH 7.4, aqueous buffer, kinetic from dmso stock.

T1 sequence (P29597 589-875 limits assumed): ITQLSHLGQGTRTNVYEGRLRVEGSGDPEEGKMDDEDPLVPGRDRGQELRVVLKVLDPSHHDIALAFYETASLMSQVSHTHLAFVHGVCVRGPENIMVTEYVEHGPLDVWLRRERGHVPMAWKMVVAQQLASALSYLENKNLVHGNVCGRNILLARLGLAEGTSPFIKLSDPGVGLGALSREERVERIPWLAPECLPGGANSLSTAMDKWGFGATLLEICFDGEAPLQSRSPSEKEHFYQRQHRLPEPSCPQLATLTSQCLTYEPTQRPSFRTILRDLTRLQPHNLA
T2 sequence (P23458 583-855 limits assumed): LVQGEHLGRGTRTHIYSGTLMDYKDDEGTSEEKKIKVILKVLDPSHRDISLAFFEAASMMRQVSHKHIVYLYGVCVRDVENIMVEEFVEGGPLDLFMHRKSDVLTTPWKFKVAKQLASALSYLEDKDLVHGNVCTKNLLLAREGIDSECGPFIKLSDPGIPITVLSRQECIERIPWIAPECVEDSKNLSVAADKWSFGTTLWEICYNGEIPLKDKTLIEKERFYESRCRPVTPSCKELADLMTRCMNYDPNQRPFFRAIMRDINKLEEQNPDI

Turning to `[2H]C([2H])([2H])NC(=O)c1cnc(NC(=O)C2CC2)cc1Nc1cnn2ccc(C(C)C(F)(F)F)c(OC)c12` (single isomer, unassigned) [Example 9A, (R*) -6-(cyclopropanecarboxamido)-4-((4-methoxy-5-(1,1,1-trifluoropropan-2-yl)pyrazolo[1,5-a]pyridin-3-yl)amino)-N-(methyl-d3)nicotinamide], the IC50 was 0.424 nM at TYK2-JH2 domain, 2140 nM in data set [1] and 39 nM at JAK1-JH2 domain. For the same compound, the JAK1/TYK2 selectivity on TYK2-JH2 domain is 91.9. Besides, the solubility kinetic at 2 h in the data set “Kinetic solubility” is recorded as 35.80 µM (≈ 17.2 µg/mL).

For the compound `[2H]C([2H])([2H])NC(=O)c1cnc(NC(=O)C2CC2)cc1Nc1cnn2ccc(C(C)C(F)(F)F)c(OC)c12` (stereo not drawn) [Example 9, 6-(Cyclopropanecarboxamido)-4-((4-methoxy-5-(1,1,1-trifluoropropan-2-yl)pyrazolo[1,5-a]pyridin-3-yl)amino)-N-(methyl-d3)nicotinamide], the figures for the IC50 (on TYK2-JH2 domain; in data set [1]; on JAK1-JH2 domain) were 0.158 nM, 51.6 nM and 8.76 nM, respectively. Also, at TYK2-JH2 domain, the JAK1/TYK2 selectivity amounted to 55.4. Also, in “Kinetic solubility” (setting [3]), the solubility kinetic at 2 h came out at 60 µM (≈ 28.8 µg/mL).

As to `[2H]C([2H])([2H])NC(=O)c1cnc(NC(=O)C2CC2)cc1Nc1cnn2ccc(C#N)c(OC)c12` [Example 12, 4-((5-Cyano-4-methoxypyrazolo[1,5-a]pyridin-3-yl)amino)-6-(cyclopropanecarboxamido)-N-(methyl-d3)nicotinamide], the IC50 on TYK2-JH2 domain was determined as 0.308 nM; in data set [1] (Mus musculus, BaF3, 72 h), 194 nM; on JAK1-JH2 domain it was 21.1 nM. For the same compound, the JAK1/TYK2 selectivity on TYK2-JH2 domain was determined as 68.5. For the same compound, the solubility kinetic at 2 h in the data set “Kinetic solubility” (setting [3]) is 15.1 µM (≈ 6.18 µg/mL).

Take `[2H]C([2H])([2H])NC(=O)c1cnc(NC(=O)[C@@H]2C[C@@H]2F)cc1Nc1cnn2ccc(C#N)c(OC)c12` [Example 13, 4-((5-Cyano-4-methoxypyrazolo[1,5-a]pyridin-3-yl)amino)-6-((1S,2S)-2-fluorocyclopropane-1-carboxamido)-N-(methyl-d3)nicotinamide]: at TYK2-JH2 domain, the IC50 stood at 0.172 nM and the JAK1/TYK2 selectivity was determined as 122.0. In addition, in data set [2], the microsomal CLint at 1 µM stood at 22 µL/min/mg and the half-life at 1 µM was found to be 1.05 h. The IC50 in data set [1] (Mus musculus, BaF3, 72 h) was determined as 131 nM. The solubility kinetic at 2 h in the data set “Kinetic solubility” (setting [3]) was 11.2 µM (≈ 4.77 µg/mL). Moreover, on JAK1-JH2 domain, the IC50 turned out to be 21 nM.

On to `[2H]C([2H])([2H])NC(=O)c1cnc(NC(=O)C2(F)CC2)cc1Nc1cnn2ccc([C@H](O)C(F)(F)F)c(OC)c12` [Example 19, (S)-6-(1-fluorocyclopropane-1-carboxamido)-4-((4-methoxy-5-(2,2,2-trifluoro-1-hydroxyethyl)pyrazolo[1,5-a]pyridin-3-yl)amino)-N-(methyl-d3)nicotinamide], for which the IC50 stood at 0.273 nM at TYK2-JH2 domain; 137 nM in data set [1] (Mus musculus, BaF3, 72 h); 276 nM at JAK1-JH2 domain. Besides, the JAK1/TYK2 selectivity on TYK2-JH2 domain was 1011.9. In addition, the solubility kinetic at 2 h in the data set “Kinetic solubility” (setting [3]) was 22.7 µM (≈ 11.3 µg/mL).

With `[2H]C([2H])([2H])NC(=O)c1cnc(NC(=O)C2CC2)cc1Nc1cnn2ccc(CC(C)(F)F)c(OC)c12` [Example 20, 6-(Cyclopropanecarboxamido)-4-((5-(2,2-difluoropropyl)-4-methoxypyrazolo[1,5-a]pyridin-3-yl)amino)-N-(methyl-d3)nicotinamide], the IC50 at TYK2-JH2 domain was 0.058 nM; in data set [1] (Mus musculus, BaF3, 72 h), 23.1 nM; on JAK1-JH2 domain it was 13.6 nM. For the same compound, the JAK1/TYK2 selectivity on TYK2-JH2 domain stood at 235.2. Besides, the solubility kinetic at 2 h in the data set “Kinetic solubility” (setting [3]) stood at 15 µM (≈ 6.92 µg/mL).

Take `[2H]C([2H])([2H])NC(=O)c1cnc(NC(=O)C2CC2)cc1Nc1cnn2ccc(COC([2H])([2H])[2H])c(OC)c12` [Example 29, 6-(Cyclopropanecarboxamido)-4-((4-methoxy-5-((methoxy-d3)methyl)pyrazolo[1,5-a]pyridin-3-yl)amino)-N-(methyl-d3)nicotinamide]: the IC50 on TYK2-JH2 domain came out at 0.219 nM; in data set [1] (Mus musculus, BaF3, 72 h), 80.9 nM; at JAK1-JH2 domain, 16.7 nM. At TYK2-JH2 domain, the JAK1/TYK2 selectivity is on record as 76.4. For the same compound, the microsomal CLint at 1 µM in data set [2] was 27.9 µL/min/mg. Moreover, the half-life at 1 µM in data set [2] is 0.827 h. Also, in “Kinetic solubility” (setting [3]), the solubility kinetic at 2 h stood at 67.2 µM (≈ 28.9 µg/mL).

In the case of `[2H]C([2H])([2H])NC(=O)c1cnc(NC(=O)C2CC23CC3)cc1Nc1cnn2ccc([C@H](O)C(F)(F)F)c(OC)c12` (stereo partly drawn) [Example 32, 4-((4-Methoxy-5-((S)-2,2,2-trifluoro-1-hydroxyethyl)pyrazolo[1,5-a]pyridin-3-yl)amino)-N-(methyl-d3)-6-(spiro[2.2]pentane-1-carboxamido)nicotinamide], the IC50 is 0.171 nM at TYK2-JH2 domain; 42.3 nM in data set [1] (Mus musculus, BaF3, 72 h); 23.5 nM on JAK1-JH2 domain. The JAK1/TYK2 selectivity at TYK2-JH2 domain is reported as 137.2. Also, in “Kinetic solubility” (setting [3]), the solubility kinetic at 2 h was 62.2 µM (≈ 31.6 µg/mL).

For the compound `[2H]C([2H])([2H])NC(=O)c1cnc(NC(=O)[C@@H]2C[C@@H]2F)cc1Nc1cnn2cnc(C(C)C(F)(F)F)c(OC)c12` (stereo partly drawn) [Example 38, 6-((1S,2S)-2-fluorocyclopropane-1-carboxamido)-4-((4-methoxy-5-(1,1,1-trifluoropropan-2-yl)pyrazolo[1,5-c]pyrimidin-3-yl)amino)-N-(methyl-d3)nicotinamide], at TYK2-JH2 domain, the IC50 turned out to be 0.761 nM and the JAK1/TYK2 selectivity is 188.7. In data set [2], the microsomal CLint at 1 µM was 7.34 µL/min/mg and the half-life at 1 µM amounted to 3.15 h. Moreover, in data set [1] (Mus musculus, BaF3, 72 h), the IC50 was found to be 1340 nM. For the same compound, the solubility kinetic at 2 h in the data set “Kinetic solubility” (setting [3]) was found to be 37.2 µM (≈ 18.5 µg/mL). Also, the IC50 at JAK1-JH2 domain came out at 144 nM.

With `[2H]C([2H])([2H])NC(=O)c1cnc(NC(=O)C2CC2)cc1Nc1nn(C)c2ccc([C@@H](O)C(F)(F)F)c(OC)c12` [Example 49B, (R)-6-(cyclopropanecarboxamido)-4-((4-methoxy-1-methyl-5-(2,2,2-trifluoro-1-hydroxyethyl)-1H-indazol-3-yl)amino)-N-(methyl-d3)nicotinamide], the IC50 amounted to 0.211 nM at TYK2-JH2 domain; 18 nM in data set [1] (Mus musculus, BaF3, 72 h); 6.07 nM on JAK1-JH2 domain. Also, the JAK1/TYK2 selectivity at TYK2-JH2 domain is reported as 28.76. The solubility kinetic at 2 h in “Kinetic solubility” (setting [3]) came out at 37.5 µM (≈ 18.6 µg/mL).

Turning to `CNC(=O)c1nnc(NC(=O)C2CC2)cc1Nc1nc2ccc(N3CC(OC)C3)cn2n1` [Example 188, 6-(Cyclopropanecarboxamido)-4-((6-(3-methoxyazetidin-1-yl)-[1,2,4]triazolo[1,5-a]pyridin-2-yl)amino)-N-methylpyridazine-3-carboxamide, reference compound], in “Kinetic solubility” (setting [3]), the solubility kinetic at 2 h is 1.01 µM (≈ 0.442 µg/mL).
